Laboratory results published in patent US20040097549A1, “Method and composition for administering a cyclooxygenase-2 inhibitor” (Pharmacia Corporation, priority 1999, published 2004).

What was measured:
[1] = Treatment of a dog with arthritic-related symptoms (Example 7); assay type: in vivo; conditions: 15-year old dog about 25 kg, commercially-available drug therapy for nine months; some worsening noted
Experimental: A 15-year old, black Labrador Retriever, mixed-heritage, neutered-male dog weighing about 25 kg has a history of arthritic-related symptoms that makes it difficult, or impossible, for the dog to stand, walk, or ascend or descend stairs. […] Over a subsequent period of six months, this dog is treated with a cyclooxygenase-2 inhibitor in the manner described as follows.
About 125 mg of a 95% pure, selective cyclooxygenase-2 inhibitor in white crystalline powder form is dispersed in a teaspoon of olive oil which is then spread over the surface of a single slice of commercially-available wheat bread. The bread is cut into quarters, all of which is then fed to the dog. The dog is observed to consume the entire slice of bread. Within ten (10) days of initial feeding of this dog, as described above, there is observed noticeable improvement in alleviation of arthritic-related symptoms. For example, the dog is observed to walk easily, descend stairs, […], and be less lethargic in day-to-day activities.

[2] = Cynomolgus monkeys, orally for six weeks; cited from earlier work

Row | Compound | improvement in the dog's arthritic-related symptoms [1] | Toxicity [2]
1 | CC(C(=O)O)c1ccc2c(c1)[nH]c1ccc(Cl)cc12 (centres unmarked) [Rimadyl carprofan] | without improvement | –
2 | CN1C(C(=O)Nc2ccccn2)=C(O)c2sc(Cl)cc2S1(=O)=O [lomoxicam] | – | monkeys: 1-2 mg/kg/day
